# Assay results taken from patent US20050186569A1, “Nucleic acid-associated proteins” (priority 2001, published 2005).
# Assays:
# [1] = test system: SEQ ID NO:100 expression in HMVECdNeos; experiment: Microarray expression analysis of HMVECdNeos treated with TNF-α versus untreated cells; assay type: cell-based, human; conditions: HMVECdNeos at 85% confluence treated 1, 2, 4, 8, and 24 hours with TNF-α, versus untreated (0 hour)
# Procedure: (§1) Total RNA is isolated from tissue samples using the guanidinium thiocyanate method and poly(A)^+ RNA is purified using the oligo-(dT) cellulose method. Each poly(A)^+ RNA sample is reverse transcribed using MMLV reverse-transcriptase, 0.05 pg/μl oligo-(dT) primer (21mer), 1× first strand buffer, 0.03 units/μl RNase inhibitor, 500 μM dATP, 500 μM dGTP, 500 μM dTTP, 40 μM dCTP, 40 μM dCTP-Cy3 (BDS) or dCTP-Cy5 (Amersham Biosciences). The reverse transcription reaction is performed in a […] containing 200 ng poly(A)^+ RNA with GEMBRIGHT kits (Incyte Genomics). Specific control poly(A)^+ RNAs are synthesized by in vitro transcription from non-coding yeast genomic DNA. […]
# (§2) Sequences of the present invention are used to generate array elements. […] Array elements are amplified in thirty cycles of PCR from an initial quantity of 1-2 ng to a final quantity greater than 5 μg. […]
# (§3) Reporter-labeled hybridization complexes are detected with a microscope equipped with an Innova 70 mixed gas 10 W laser (Coherent, Inc., Santa Clara Calif.) capable of generating spectral lines at 488 nm for excitation of Cy3 and at 632 nm for excitation of Cy5. […]
# (§4) A grid is superimposed over the fluorescence signal image such that the signal from each spot is centered in each element of the grid. […]
# [2] = test system: SEQ ID NO:108 expression in HMVECdNeo cells; experiment: Microarray RNA expression of HMVECdNeo cells treated with TNF-α versus untreated cells; assay type: cell-based, human; conditions: TNF-α 10 ng/ml for 2, 4, 8, and 24 hours, result at the last three time points, versus untreated (0 hour)
# Procedure: as §1, §2, §3, §4
substance,measurement,setting,value
TNF-α,expression of SEQ ID NO:100,[1],decreased expression
same,expression of SEQ ID NO:108 (underexpressed),[2],at least two-fold
